Data as given in ChEMBL document CHEMBL3817825, “Synthesis and biological evaluation of Schiff base-linked imidazolyl naphthalimides as novel potential anti-MRSA agents” (2016).
Values after ≈ are worked out from the molar mass of the structure shown.

Columns and labels:
Candida albicans = assay: Antifungal activity against Candida albicans ATCC76615 after 24 hrs by two fold serial dilution method; assay type: functional; settings: ATCC76615, 24 h
Cyberlindnera jadinii = assay: Antifungal activity against Candida utilis ATCC9950 after 24 hrs by two fold serial dilution method; assay type: functional; settings: Williopsis jadinii, ATCC9950, 24 h
Saccharomyces cerevisiae = assay: Antifungal activity against Beer yeast ATCC9763 after 24 hrs by two fold serial dilution method; assay type: functional; settings: ATCC9763, 24 h
Staphylococcus aureus [1] = assay: Antibacterial activity against methicillin-resistant Staphylococcus aureus N315 after 24 hrs by two fold serial dilution method; assay type: functional; settings: N315, 24 h
Candida = assay: Antifungal activity against Candida mycoderma ATCC10231 after 24 hrs by two fold serial dilution method; assay type: functional; settings: ATCC10231, 24 h
Shigella dysenteriae = assay: Antibacterial activity against Shigella dysenteriae after 24 hrs by two fold serial dilution method; assay type: functional
Pseudomonas aeruginosa = assay: Antibacterial activity against Pseudomonas aeruginosa ATCC27853 after 24 hrs by two fold serial dilution method; assay type: functional; settings: ATCC27853, 24 h
Staphylococcus aureus [2] = assay: Antibacterial activity against Staphylococcus aureus ATCC25923 after 24 hrs by two fold serial dilution method; assay type: functional; settings: ATCC25923, 24 h
Escherichia coli [3] = assay: Antibacterial activity against Escherichia coli DH52 after 24 hrs by two fold serial dilution method; assay type: functional; settings: DH52, 24 h
Bacillus subtilis [4] = assay: Antibacterial activity against Bacillus subtilis ATCC6633 after 24 hrs by two fold serial dilution method; assay type: functional; settings: ATCC6633, 24 h
Aspergillus flavus = assay: Antifungal activity against Aspergillus flavus ATCC204304 after 24 hrs by two fold serial dilution method; assay type: functional; settings: ATCC204304, 24 h
Micrococcus luteus = assay: Antibacterial activity against Micrococcus luteus ATCC4698 after 24 hrs by two fold serial dilution method; assay type: functional; settings: ATCC4698, 24 h
Salmonella typhi = assay: Antibacterial activity against Bacillus typhi after 24 hrs by two fold serial dilution method; assay type: functional, Salmonella enterica subsp. enterica serovar Typhi; settings: Salmonella enterica
Bacillus = assay: Antibacterial activity against Bacillus proteus ATCC13315 after 24 hrs by two fold serial dilution method; assay type: functional; settings: ATCC13315, 24 h
Escherichia coli [5] = assay: Antibacterial activity against Escherichia coli JM109 after 24 hrs by two fold serial dilution method; assay type: functional; settings: JM109, 24 h
Bacillus subtilis [6] = assay: Potency index, ratio of chloromycin MIC to compound MIC for Bacillus subtilis ATCC6633; assay type: functional
Escherichia coli [7] = assay: Potency index, ratio of chloromycin MIC to compound MIC for Escherichia coli JM109; assay type: functional

Row | Compound | MIC (Candida albicans) [µM] | MIC (Cyberlindnera jadinii) [µM] | MIC (Saccharomyces cerevisiae) [µM] | MIC (Staphylococcus aureus [1]) [µM] | MIC (Candida) [µM] | MIC (Shigella dysenteriae) [µM] | MIC (Pseudomonas aeruginosa) [µM] | MIC (Staphylococcus aureus [2]) [µM] | MIC (Escherichia coli [3]) [µM] | MIC (Bacillus subtilis [4]) [µM] | MIC (Aspergillus flavus) [µM] | MIC (Micrococcus luteus) [µM] | MIC (Salmonella typhi) [µM] | MIC (Bacillus) [µM] | MIC (Escherichia coli [5]) [µM] | Ratio (Bacillus subtilis [6]) | Ratio (Escherichia coli [7])
1 | CCCCc1nc(Cl)c(/C=N/N2C(=O)c3cccc4c(N5CCOCC5)ccc(c34)C2=O)n1Cc1ccc(F)cc1 | 440 (≈ 253 µg/mL) | 440 (≈ 253 µg/mL) | 890 (≈ 511 µg/mL) | 440 (≈ 253 µg/mL) | 440 (≈ 253 µg/mL) | 0.89 (≈ 0.511 µg/mL) | 890 (≈ 511 µg/mL) | 890 (≈ 511 µg/mL) | 890 (≈ 511 µg/mL) | 440 (≈ 253 µg/mL) | 890 (≈ 511 µg/mL) | 440 (≈ 253 µg/mL) | 0.44 (≈ 0.253 µg/mL) | 440 (≈ 253 µg/mL) | 440 (≈ 253 µg/mL) |  | 
2 | OC(Cn1cncn1)(Cn1cncn1)c1ccc(F)cc1F [FLUCONAZOLE] | 3 (≈ 0.919 µg/mL) | 30 (≈ 9.19 µg/mL) | 50 (≈ 15.3 µg/mL) |  | 10 (≈ 3.06 µg/mL) |  |  |  |  |  | 840 (≈ 257 µg/mL) |  |  |  |  |  | 
3 | CCCCc1nc(Cl)c(/C=N/N2C(=O)c3cccc4c(Br)ccc(c34)C2=O)[nH]1 | 1110 (≈ 510 µg/mL) | 1110 (≈ 510 µg/mL) | 140 (≈ 64.4 µg/mL) | 560 (≈ 257 µg/mL) | 1110 (≈ 510 µg/mL) | 0.56 (≈ 0.257 µg/mL) | 560 (≈ 257 µg/mL) | 1110 (≈ 510 µg/mL) | 1110 (≈ 510 µg/mL) | 560 (≈ 257 µg/mL) | 1110 (≈ 510 µg/mL) | 1110 (≈ 510 µg/mL) | 1.11 (≈ 0.51 µg/mL) | 1110 (≈ 510 µg/mL) | 1110 (≈ 510 µg/mL) |  | 
4 | CCCCc1nc(Cl)c(/C=N/N2C(=O)c3cccc4c(N5CCOCC5)ccc(c34)C2=O)n1Cc1ccc(Cl)c(Cl)c1 | 370 (≈ 231 µg/mL) | 370 (≈ 231 µg/mL) | 180 (≈ 112 µg/mL) | 370 (≈ 231 µg/mL) | 370 (≈ 231 µg/mL) | 0.74 (≈ 0.462 µg/mL) | 740 (≈ 462 µg/mL) | 740 (≈ 462 µg/mL) | 180 (≈ 112 µg/mL) | 370 (≈ 231 µg/mL) | 740 (≈ 462 µg/mL) | 370 (≈ 231 µg/mL) | 0.74 (≈ 0.462 µg/mL) | 180 (≈ 112 µg/mL) | 370 (≈ 231 µg/mL) |  | 
5 | CCCCc1nc(Cl)c(/C=N/N2C(=O)c3cccc4c(N5CCOCC5)ccc(c34)C2=O)n1Cc1cccc(F)c1 | 440 (≈ 253 µg/mL) | 440 (≈ 253 µg/mL) | 440 (≈ 253 µg/mL) | 440 (≈ 253 µg/mL) | 440 (≈ 253 µg/mL) | 0.89 (≈ 0.511 µg/mL) | 440 (≈ 253 µg/mL) | 220 (≈ 126 µg/mL) | 440 (≈ 253 µg/mL) | 440 (≈ 253 µg/mL) | 440 (≈ 253 µg/mL) | 440 (≈ 253 µg/mL) | 0.89 (≈ 0.511 µg/mL) | 220 (≈ 126 µg/mL) | 440 (≈ 253 µg/mL) |  | 
6 | CCCCc1nc(Cl)c(/C=N/N2C(=O)c3cccc4c(N5CCOCC5)ccc(c34)C2=O)n1Cc1ccccc1Cl | 430 (≈ 254 µg/mL) | 430 (≈ 254 µg/mL) | 430 (≈ 254 µg/mL) | 430 (≈ 254 µg/mL) | 870 (≈ 514 µg/mL) | 0.22 (≈ 0.13 µg/mL) | 870 (≈ 514 µg/mL) | 870 (≈ 514 µg/mL) | 870 (≈ 514 µg/mL) | 430 (≈ 254 µg/mL) | 220 (≈ 130 µg/mL) | 870 (≈ 514 µg/mL) | 0.43 (≈ 0.254 µg/mL) | 430 (≈ 254 µg/mL) | 110 (≈ 65 µg/mL) |  | 
7 | CCCCc1nc(Cl)c(/C=N/N2C(=O)c3cccc4c(N5CCOCC5)ccc(c34)C2=O)n1Cc1cccc(Cl)c1 | 430 (≈ 254 µg/mL) | 220 (≈ 130 µg/mL) | 220 (≈ 130 µg/mL) | 430 (≈ 254 µg/mL) | 430 (≈ 254 µg/mL) | 0.11 (≈ 0.065 µg/mL) | 430 (≈ 254 µg/mL) | 430 (≈ 254 µg/mL) | 430 (≈ 254 µg/mL) | 7 (≈ 4.13 µg/mL) | 430 (≈ 254 µg/mL) | 430 (≈ 254 µg/mL) | 0.43 (≈ 0.254 µg/mL) | 220 (≈ 130 µg/mL) | 430 (≈ 254 µg/mL) | 14 | 
8 | CCCCc1nc(Cl)c(/C=N/N2C(=O)c3cccc4c(N5CCOCC5)ccc(c34)C2=O)n1Cc1ccc(Cl)cc1 | 430 (≈ 254 µg/mL) | 220 (≈ 130 µg/mL) | 220 (≈ 130 µg/mL) | 430 (≈ 254 µg/mL) | 430 (≈ 254 µg/mL) | 0.87 (≈ 0.514 µg/mL) | 870 (≈ 514 µg/mL) | 870 (≈ 514 µg/mL) | 430 (≈ 254 µg/mL) | 430 (≈ 254 µg/mL) | 870 (≈ 514 µg/mL) | 430 (≈ 254 µg/mL) | 0.43 (≈ 0.254 µg/mL) | 430 (≈ 254 µg/mL) | 430 (≈ 254 µg/mL) |  | 
9 | CCCCc1nc(Cl)c(/C=N/N2C(=O)c3cccc4c(N5CCCC5)ccc(c34)C2=O)[nH]1 | 140 (≈ 63 µg/mL) | 280 (≈ 126 µg/mL) | 570 (≈ 256 µg/mL) | 280 (≈ 126 µg/mL) | 140 (≈ 63 µg/mL) | 0.57 (≈ 0.256 µg/mL) | 570 (≈ 256 µg/mL) | 570 (≈ 256 µg/mL) | 280 (≈ 126 µg/mL) | 570 (≈ 256 µg/mL) | 570 (≈ 256 µg/mL) | 280 (≈ 126 µg/mL) | 0.57 (≈ 0.256 µg/mL) | 570 (≈ 256 µg/mL) | 280 (≈ 126 µg/mL) |  | 
10 | CCCCCCCCCCCCn1c(CCCC)nc(Cl)c1/C=N/N1C(=O)c2cccc3c(N4CCOCC4)ccc(c23)C1=O | 810 (≈ 514 µg/mL) | 10 (≈ 6.34 µg/mL) | 400 (≈ 254 µg/mL) | 200 (≈ 127 µg/mL) | 810 (≈ 514 µg/mL) | 0.8 (≈ 0.507 µg/mL) | 800 (≈ 507 µg/mL) | 400 (≈ 254 µg/mL) | 800 (≈ 507 µg/mL) | 800 (≈ 507 µg/mL) | 810 (≈ 514 µg/mL) | 400 (≈ 254 µg/mL) | 0.8 (≈ 0.507 µg/mL) | 800 (≈ 507 µg/mL) | 10 (≈ 6.34 µg/mL) |  | 10
